Consider seven molecules from publication PMC12232897, “Harnessing Negative Photochromism in Styryl Cyanines for Light‐Modulated Proton Transport” (Angewandte Chemie (International Ed. in English), 2025).

Assay type in all cases: physicochemical
A short description of data set [1]: pKa in the dark and under light irradiation. The settings on record: for pKa: water:DMSO 99:1, dark, read-out: pKa dark (open form). The text has this:
Since light‐induced cyclization is also associated with a change in the nature of the amino group of 1a–e, we investigated the change in their pK a upon light irradiation. This phenomenon has been already reported in the literature for other photoresponsive molecules,^[ [41], [42] ^] and it is recognized that, apart from being key in many biological processes, is a powerful tool for potential applications in catalysis^[ [43] ^] or self‐assembly.^[ [44] ^] […] Moreover, for compounds 1b and 1c, bearing methoxy groups, the change in pK a generated upon light irradiation is considerably smaller than for compounds 1d and 1e, bearing fluorine groups. This difference can be easily associated with the nature of the substituents, where for 1d–e the electron‐withdrawing effect of the fluorine favors a higher acidity of the closed isomers, contrarily to the effect of the electron‐donating groups for 1b–c.

The nature of data set [2]: Fatigue resistance / photostability under 365 nm irradiation. The settings on record: UV–vis absorbance kinetic experiments.
Another data set in a line: Solubility in solvents. Particulars: solvent. The text has this: Having explored the effect of substituents, we next focused on the impact of the medium. […] These findings can be explained using the reported hydrogen‐bond donor (HBD) acidity (Taft–Kamlet α‐scale) of the utilized solvents.^[ [39] ^] Such a big difference in thermal half‐life has to be associated with the proton transfer from the secondary amine (in the closed form) to the phenol group since the back relaxation from the closed form to the open conjugated form is a […] process. We hypothesize that solvents like water and methanol trigger a Grotthus‐like proton transfer mechanism which speeds up the back‐relaxation process, similar to what was previously reported for other phenol‐bearing photoswitches.^[ [40] ^]
Similar to what is observed for the other compounds, the half‐life of closed 1f in water is extremely small (Table 1). This opens the opportunity of using 1f in out‐of‐equilibrium^[ [45] ^] and dissipative water‐based systems. Moreover, irradiation of 1f triggers the photo reactions that generate its respective closed indole‐like form, which compared to the closed forms of 1a–e also has a lower value of pK^hν (Table 1) and generates a higher ΔpK a value between the open and closed forms, being 1.7 pK a units, thanks to the electron‐withdrawing effect coming from the presence of a sulfonate group.

For the molecule `CC1(C)C(/C=C/c2cc(F)ccc2O)=Nc2ccccc21` [1e], the pKa in data set [1] amounted to 4.3.
Consider `COc1ccccc1/C=C/C1=Nc2ccccc2C1(C)C` [1g], for which, in data set [2], the “Photostability on prolonged irradiation at 365 nm” value was “photodegradation of the sample”.
For `CC1(C)C(/C=C/c2ccccc2O)=Nc2ccc(S(=O)(=O)[O-])cc21.[K+]` [1f], the Solubility entry in the data set “Solubility in solvents” was “fully soluble and fully switchable in water”. Also, the “ΔpKa between the open and closed forms” value in data set [1] (water:DMSO 99:1) is 1.7 pK a units. The pKa in data set [1] is 3.9.
As for `COc1ccc(O)c(/C=C/C2=Nc3ccccc3C2(C)C)c1` [1c], the pKa in data set [1] was found to be 4.3.
Consider `CC1(C)C(/C=C/c2ccccc2O)=Nc2ccc(F)cc21` [1d], for which the pKa in data set [1] stood at 4.3.
As for `COc1ccc2c(c1)C(C)(C)C(/C=C/c1ccccc1O)=N2` [1b], the pKa in data set [1] was 4.6.
With `CC1(C)C(/C=C/c2ccccc2O)=Nc2ccccc21` [1a], the Solubility entry in “Solubility in solvents” is “soluble in both polar and apolar solvents”. Besides, the pKa in data set [1] came to 4.3.
